Test [1] relates to Adrenergic α 1, Non-Selective. The test can be described thus: Radioligand binding panel (Table S1). Further details: species or system rat. The conditions noted are these: 10 μM T1-11, n 2.
The target of test [2] is T1, Adrenergic β 3 (Homo sapiens, UniProt P13945).
T1 construct: purchased MDS Pharma Services Taiwan
As to the kind of experiment: Radioligand binding panel (Table S1). The conditions noted are these: 10 μM T1-11, n 2.

Test [3] addresses T2, Chemokine CCR5 (Homo sapiens, UniProt P51681).
T2 construct: purchased MDS Pharma Services Taiwan
The test can be described thus: Radioligand binding panel (Table S1). The conditions noted are these: 10 μM T1-11, n 2.

Test [4] concerns the target T3, Dopamine D4.2 (Homo sapiens, UniProt P21917, DEL265-296).
T3 construct: purchased MDS Pharma Services Taiwan
The test can be described thus: Radioligand binding panel (Table S1). The note with it: 10 μM T1-11, n 2.

For test [5], the system named is GABAA, Benzodiazepine, Central, Flunitrazepam. The test can be described thus: Radioligand binding panel (Table S1). Further details: species or system rat. The conditions noted are these: 10 μM T1-11, n 2.
Test [6] concerns GABAA, Chloride Channel, TBOB. The test can be described thus: Radioligand binding panel (Table S1). Further details: species or system rat. The conditions noted are these: 10 μM T1-11, n 2.
The target of test [7] is T4, Histamine H1 (Homo sapiens, UniProt P35367).
T4 construct: purchased MDS Pharma Services Taiwan
As to the kind of experiment: Radioligand binding panel (Table S1). The conditions noted are these: 10 μM T1-11, n 2.

For test [8], the target named is T5, Melanocortin MC3 (Homo sapiens, UniProt P41968).
T5 construct: purchased MDS Pharma Services Taiwan
The test can be described thus: Radioligand binding panel (Table S1). The conditions noted are these: 10 μM T1-11, n 2.

The target of test [9] is T6, Nicotinic Acetylcholine α1, Bungarotoxin (Homo sapiens, UniProt P02708+P07510+Q07001).
T6 construct: purchased MDS Pharma Services Taiwan
As to the kind of experiment: Radioligand binding panel (Table S1).

Test [10] deals with T7, Opiate μ (OP3, MOP) (Homo sapiens, UniProt P35372).
T7 construct: purchased MDS Pharma Services Taiwan
The test can be described thus: Radioligand binding panel (Table S1). The note with it: 10 μM T1-11, n 2.

Test [11] has as its system Potassium Channel [KA]. As to the kind of experiment: Radioligand binding panel (Table S1). Set-up: species or system rat. The note with it: 10 μM T1-11, n 2.
The target in test [12] is T8, Progesterone PR-B (Homo sapiens, UniProt P06401).
T8 construct: purchased MDS Pharma Services Taiwan
The test can be described thus: Radioligand binding panel (Table S1). The conditions noted are these: 10 μM T1-11, n 2.

Test [13] deals with T9, Serotonin (5-Hydroxytryptamine) 5-HT2C (Homo sapiens, UniProt P28335).
T9 construct: purchased MDS Pharma Services Taiwan
The test can be described thus: Radioligand binding panel (Table S1). The note with it: 10 μM T1-11, n 2.

Test [14] addresses T10, Somatostatin sst3 (Homo sapiens, UniProt P32745).
T10 construct: purchased MDS Pharma Services Taiwan
As to the kind of experiment: Radioligand binding panel (Table S1). The conditions noted are these: 10 μM T1-11, n 2.

The subject of test [15] is Thyrotropin Releasing Hormone (TRH). As to the kind of experiment: Radioligand binding panel (Table S1). Set-up: species or system rat. The note with it: 10 μM T1-11, n 2.
Test [16] has as its target T11, Vasoactive Intestinal Peptide VIP1 (Homo sapiens, UniProt P32241).
T11 construct: purchased MDS Pharma Services Taiwan
The test can be described thus: Radioligand binding panel (Table S1). The conditions noted are these: 10 μM T1-11, n 2.

In test [17] the target is T12, human A3R (Homo sapiens, UniProt P0DMS8).
T12 construct: host or cells: CHO-K1
The test can be described thus: GTPγS binding assay. The test is classed as biochemical. The protocol:
The GTPγS binding assay was conducted by MDS Pharma Services Taiwan using a previously described protocol with slight modifications. In brief, membrane proteins collected from Chinese hamster ovary (CHO-K1) cells expressing the human A3R (5∼10 µg per reaction) were incubated with the indicated drug and ^35S-GTPγS (0.1 nM) in a total volume of 500 µl for 30 min at 30°C. The reaction buffer was composed of 20 mM HEPES (pH 7.4), 100 mM NaCl, 10 mM MgCl2, 1 mM DTT, and 1 mM EDTA. The reaction was terminated by filtration over GF/B glass fibers and washed with the same reaction buffer. Relative GTPγS binding was defined as the percentage of ^35S-GTPγS binding when compared to that of a selective agonist of the A3R (2-Cl-IB-MECA, 3 µM) under the same binding conditions.
Supplementary file pone.0020934.s004.tif: Figure S4 T1-11 binds to the A3 adenosine receptor (A3R) without evoking a significant binding of GTP. Membrane fractions collected from CHO-K1 cells expressing the human A3R were incubated with T1-11 at the indicated concentration and ^35S-GTPγS (0.1 nM) for 30 min at 30°C. Relative GTPγS binding was defined as the percentage of ^35S-GTPγS binding when compared with a selective agonist of the A3R (2-Cl-IB-MECA, 3 µM). (TIF) Click here for additional data file.
On the technique in general: GTPγS resists hydrolysis and so accumulates on activated G proteins.

Test [18] has as its system striatal adenosine. The test can be described thus: In vivo brain dialysis and adenosine measurement. Further details: species or system mice. The conditions noted are these: T1-11 100 µM perfused through the dialysis probe. The protocol:
The level of adenosine in the brain was determined using microdialysis as previously described, [73]. In brief, concentrated dialysis probes with 4-mm dialysis membranes (CMA, Stockholm, Sweden) were used to monitor the extracellular adenosine in the striatum of rats. After inducing anesthesia with chloral hydrate ([…], IP), rats were implanted with the probe, and the coordinates for implantation were AP +1.0 mm, LM +2.8 mm, and VD −6.5 mm. Ringer's solution (140 mM NaCl, 1.2 mM CaCl2, 3.0 mM KCl, 1.0 mM MgCl2, and 0.04 mM ascorbic acid) was continuously perfused (0.5 µl/min) via probes throughout the experiments. After implantation and perfusion for 1.5 h, the perfusate was collected for 1 h as a baseline and then Ringer's solution containing T1-11 (100 µM) was perfused for another 1 h. The perfusate was analyzed by high-performance liquid chromatography (HPLC; Agilent 1100 series, Germany) coupled with a photo diode array detector (Agilent G1315B,) at 260 nm. Separations were obtained with a reversed-phase column (Cosmosil 5C18-AR-II, 250×4.6 mm, Kyoto, Japan) eluted at a flow rate of 1.0 ml/min with a linear solvent gradient elution system composed of eluents A and B (A: 0.0085% H3PO4 in H2O; B: 100% acetonitrile) according to the following profile: 0∼15 min, 100%∼90% A, 0%∼10% B.

Test [19] deals with mutant Htt aggregates. As to the kind of experiment: Striatal Htt aggregates (filter retardation assay, immunofluorescence). Type of test: in vivo. The note with it: R6/2 mice, 12 weeks old, 0.05 mg/ml in drinking water. As to the method: SDS-insoluble mutant Htt aggregates were detected and quantified as described. A filter retardation assay was performed as described previously. Blots were blocked with 5% skim milk in phosphate-buffered saline (PBS) and incubated with an anti-Htt antibody (EM48, 1∶500; Chemicon International, Temecula, CA, USA) at 4°C overnight followed by the corresponding secondary antibody for 1 h at room temperature. Immunoreactive bands were detected by enhanced chemiluminescence (Pierce) and recorded using Kodak XAR-5 film.
Coronal serial sections (20 µm) containing the striatum (interaural 5.34 mm/bregma 1.54 mm to interaural 3.7 mm/bregma −0.1 mm) were immunohistochemically stained as described previously. Brain sections were blocked with normal goat serum and incubated overnight with an anti-Htt antibody (EM48, 1∶500) at 4°C, followed by a 2 h-incubation with a goat anti-mouse IgG conjugated to Alexa Fluor® 568 at room temperature. The nuclei were stained with Hoechst 33258. The patterns of immunostaining were analyzed with a laser confocal microscope (LSM510, Carl Zeiss MicroImaging Inc, Germany). Five different brain sections of each animal were analyzed. At least 2000 cells from each animal were used to quantify the sizes of mHtt aggregates using ImageJ software (http://rsbweb.nih.gov/ij/; Research Services Branch of the National Institute of Mental Health, Bethesda, MD, USA).

As usually defined, the % Inhibition is the change of the read-out against control, counted positive when it falls. The inhibition is the drop in the measured response relative to a control, in per cent.

T12 sequence (P0DMS8 whole entry): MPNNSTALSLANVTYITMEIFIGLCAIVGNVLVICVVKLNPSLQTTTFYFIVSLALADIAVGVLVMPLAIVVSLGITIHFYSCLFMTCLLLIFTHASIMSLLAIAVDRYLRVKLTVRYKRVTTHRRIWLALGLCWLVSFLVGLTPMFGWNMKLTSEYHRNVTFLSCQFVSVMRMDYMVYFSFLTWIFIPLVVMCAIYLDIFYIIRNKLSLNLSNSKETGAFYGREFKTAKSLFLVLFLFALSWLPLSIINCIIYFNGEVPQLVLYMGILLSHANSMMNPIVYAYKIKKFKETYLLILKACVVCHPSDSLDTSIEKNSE
T6 sequence (P02708 21-457): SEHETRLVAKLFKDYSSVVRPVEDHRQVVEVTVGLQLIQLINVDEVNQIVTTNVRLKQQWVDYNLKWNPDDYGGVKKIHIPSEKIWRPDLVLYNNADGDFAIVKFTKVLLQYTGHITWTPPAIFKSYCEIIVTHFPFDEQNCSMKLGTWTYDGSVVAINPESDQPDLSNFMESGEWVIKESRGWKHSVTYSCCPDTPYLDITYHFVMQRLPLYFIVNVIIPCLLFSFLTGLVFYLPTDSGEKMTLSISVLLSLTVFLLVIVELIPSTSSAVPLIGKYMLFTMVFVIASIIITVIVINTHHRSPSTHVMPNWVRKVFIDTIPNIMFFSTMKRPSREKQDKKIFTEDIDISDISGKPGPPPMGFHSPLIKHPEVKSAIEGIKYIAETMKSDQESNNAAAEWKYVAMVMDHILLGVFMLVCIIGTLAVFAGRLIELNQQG
T6 sequence (P11230 24-501, further chain): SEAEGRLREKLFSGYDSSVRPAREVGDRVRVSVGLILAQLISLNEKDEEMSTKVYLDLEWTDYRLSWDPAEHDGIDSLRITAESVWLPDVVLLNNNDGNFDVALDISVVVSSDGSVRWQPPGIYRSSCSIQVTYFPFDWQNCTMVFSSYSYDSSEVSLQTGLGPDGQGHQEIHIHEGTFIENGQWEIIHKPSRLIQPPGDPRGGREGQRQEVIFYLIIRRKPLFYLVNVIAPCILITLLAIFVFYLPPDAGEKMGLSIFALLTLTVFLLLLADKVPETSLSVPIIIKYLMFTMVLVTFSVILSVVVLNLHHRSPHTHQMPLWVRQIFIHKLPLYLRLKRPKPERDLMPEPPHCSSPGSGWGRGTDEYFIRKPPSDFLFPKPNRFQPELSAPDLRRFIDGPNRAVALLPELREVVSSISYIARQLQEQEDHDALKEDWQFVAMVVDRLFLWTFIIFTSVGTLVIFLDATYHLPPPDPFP
T6 sequence (Q07001 22-517): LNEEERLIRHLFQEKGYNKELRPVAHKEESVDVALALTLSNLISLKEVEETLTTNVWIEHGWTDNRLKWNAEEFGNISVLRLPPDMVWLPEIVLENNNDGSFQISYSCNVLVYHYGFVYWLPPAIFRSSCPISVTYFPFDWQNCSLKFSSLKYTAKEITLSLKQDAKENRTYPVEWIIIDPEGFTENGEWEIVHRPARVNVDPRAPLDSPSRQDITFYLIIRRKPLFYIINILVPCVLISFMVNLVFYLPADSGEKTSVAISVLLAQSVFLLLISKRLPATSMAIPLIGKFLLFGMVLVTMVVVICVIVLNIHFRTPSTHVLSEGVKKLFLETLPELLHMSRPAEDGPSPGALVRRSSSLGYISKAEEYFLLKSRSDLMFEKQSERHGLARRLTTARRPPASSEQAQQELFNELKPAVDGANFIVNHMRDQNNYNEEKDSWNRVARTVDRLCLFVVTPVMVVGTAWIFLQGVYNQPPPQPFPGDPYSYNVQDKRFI
T6 sequence (P07510 23-517): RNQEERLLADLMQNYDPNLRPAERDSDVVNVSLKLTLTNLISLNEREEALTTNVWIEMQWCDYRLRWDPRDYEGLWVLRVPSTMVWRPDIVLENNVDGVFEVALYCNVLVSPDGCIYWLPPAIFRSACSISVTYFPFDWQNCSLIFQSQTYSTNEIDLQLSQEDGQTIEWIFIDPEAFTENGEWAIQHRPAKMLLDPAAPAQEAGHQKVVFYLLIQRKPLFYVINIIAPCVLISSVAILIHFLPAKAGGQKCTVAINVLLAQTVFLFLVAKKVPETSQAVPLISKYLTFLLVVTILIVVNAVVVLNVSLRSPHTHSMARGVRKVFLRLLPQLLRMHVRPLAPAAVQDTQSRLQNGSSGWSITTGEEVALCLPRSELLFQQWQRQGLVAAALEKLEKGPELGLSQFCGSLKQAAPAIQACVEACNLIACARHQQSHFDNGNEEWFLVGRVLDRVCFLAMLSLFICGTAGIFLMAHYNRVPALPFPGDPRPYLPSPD
T1 sequence (P13945 whole entry): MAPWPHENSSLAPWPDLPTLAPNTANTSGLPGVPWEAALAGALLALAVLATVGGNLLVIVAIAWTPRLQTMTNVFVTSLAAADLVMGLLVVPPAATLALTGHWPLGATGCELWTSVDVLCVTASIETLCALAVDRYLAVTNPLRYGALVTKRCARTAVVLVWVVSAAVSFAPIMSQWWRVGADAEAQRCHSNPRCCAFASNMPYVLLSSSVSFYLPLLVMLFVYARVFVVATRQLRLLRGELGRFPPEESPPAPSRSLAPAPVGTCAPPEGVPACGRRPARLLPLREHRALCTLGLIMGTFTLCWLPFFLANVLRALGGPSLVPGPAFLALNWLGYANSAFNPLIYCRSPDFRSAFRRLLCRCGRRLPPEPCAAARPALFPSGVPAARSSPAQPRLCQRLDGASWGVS
T7 sequence (P35372 whole entry): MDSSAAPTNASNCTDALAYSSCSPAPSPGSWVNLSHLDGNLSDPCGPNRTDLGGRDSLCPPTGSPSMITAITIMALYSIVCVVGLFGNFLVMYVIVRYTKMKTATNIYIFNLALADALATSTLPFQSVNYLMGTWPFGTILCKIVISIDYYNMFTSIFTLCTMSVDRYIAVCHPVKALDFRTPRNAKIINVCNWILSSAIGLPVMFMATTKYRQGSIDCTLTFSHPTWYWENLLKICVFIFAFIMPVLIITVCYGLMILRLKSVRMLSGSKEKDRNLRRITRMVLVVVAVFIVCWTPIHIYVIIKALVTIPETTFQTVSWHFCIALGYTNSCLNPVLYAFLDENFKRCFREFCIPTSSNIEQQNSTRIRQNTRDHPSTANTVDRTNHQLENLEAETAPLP
T9 sequence (P28335 33-458): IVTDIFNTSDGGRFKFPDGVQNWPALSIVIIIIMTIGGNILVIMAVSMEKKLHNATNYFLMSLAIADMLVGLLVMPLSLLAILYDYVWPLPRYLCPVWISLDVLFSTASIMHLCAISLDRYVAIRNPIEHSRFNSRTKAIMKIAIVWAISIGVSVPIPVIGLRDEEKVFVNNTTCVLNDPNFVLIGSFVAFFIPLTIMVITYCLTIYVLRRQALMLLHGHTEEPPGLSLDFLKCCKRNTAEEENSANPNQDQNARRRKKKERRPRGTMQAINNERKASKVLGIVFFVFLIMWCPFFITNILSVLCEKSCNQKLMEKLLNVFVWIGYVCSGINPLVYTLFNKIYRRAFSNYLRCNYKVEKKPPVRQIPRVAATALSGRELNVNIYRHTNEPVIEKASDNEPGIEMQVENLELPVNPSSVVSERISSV
T5 sequence (P41968 whole entry): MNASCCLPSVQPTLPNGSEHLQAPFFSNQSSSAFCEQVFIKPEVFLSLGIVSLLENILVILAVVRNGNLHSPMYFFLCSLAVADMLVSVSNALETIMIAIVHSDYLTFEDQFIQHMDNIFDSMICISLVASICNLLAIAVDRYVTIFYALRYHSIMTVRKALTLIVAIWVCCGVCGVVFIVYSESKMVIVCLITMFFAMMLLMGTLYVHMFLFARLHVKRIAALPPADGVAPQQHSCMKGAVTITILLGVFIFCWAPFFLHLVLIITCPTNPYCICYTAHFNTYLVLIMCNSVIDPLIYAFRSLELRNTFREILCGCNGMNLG
T11 sequence (P32241 31-457): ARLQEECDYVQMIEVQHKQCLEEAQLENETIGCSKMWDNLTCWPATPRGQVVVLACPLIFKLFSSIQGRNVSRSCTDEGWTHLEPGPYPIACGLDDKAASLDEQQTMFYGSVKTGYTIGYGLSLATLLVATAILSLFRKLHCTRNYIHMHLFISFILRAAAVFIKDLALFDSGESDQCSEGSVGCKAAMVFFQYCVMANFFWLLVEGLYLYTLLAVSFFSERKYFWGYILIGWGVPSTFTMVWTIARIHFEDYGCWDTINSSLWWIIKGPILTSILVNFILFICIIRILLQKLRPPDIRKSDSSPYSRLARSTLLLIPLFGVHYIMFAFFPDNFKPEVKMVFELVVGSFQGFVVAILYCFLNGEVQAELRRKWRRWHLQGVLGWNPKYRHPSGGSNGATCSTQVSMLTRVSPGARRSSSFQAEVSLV
T10 sequence (P32745 whole entry): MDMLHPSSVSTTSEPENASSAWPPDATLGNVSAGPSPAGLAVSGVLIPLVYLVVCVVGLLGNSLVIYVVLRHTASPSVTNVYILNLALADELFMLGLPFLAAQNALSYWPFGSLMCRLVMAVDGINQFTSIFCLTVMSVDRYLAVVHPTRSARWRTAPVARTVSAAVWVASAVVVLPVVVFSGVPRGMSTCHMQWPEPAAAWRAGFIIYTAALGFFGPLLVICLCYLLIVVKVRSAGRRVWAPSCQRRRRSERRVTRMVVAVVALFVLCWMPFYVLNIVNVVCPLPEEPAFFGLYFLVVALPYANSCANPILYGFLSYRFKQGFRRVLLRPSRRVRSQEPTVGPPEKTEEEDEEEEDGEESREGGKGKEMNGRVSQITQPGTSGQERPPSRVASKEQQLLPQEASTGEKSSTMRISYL

In the case of `OC[C@H]1O[C@@H](n2cnc3c(NCc4ccc(O)cc4)ncnc32)[C@H](O)[C@@H]1O` [T1-11, N ^6-(4-hydroxybenzyl)adenine riboside], the “% Inhibition” value is reported as -3% in test [1]; 6% in test [5]; -3% in test [6]; 1% in test [11]; -4% in [15]. In addition, the inhibition at 10 µM in test [2] was -1%; in test [3], -8%; in [4] it was 3%; in test [7], 1%; in test [8] it was 3%; in test [9], 3%. Moreover, the inhibition at 10 µM in test [10] is 5%; in test [12], -8%; in test [13] it was 27%; in test [14], 15%; in test [16], 2%. Besides, the “GTP binding compared to 2-Cl-IB-MECA (3 µM)” value in test [17] (100 µM T1-11) is given as “less than 50%”. For the same compound, the Function entry in [17] (A3 adenosine receptor, GTPγS binding, n.s. = not significant) is reported as “n.s”. Moreover, the “Level of striatal adenosine (microdialysis)” value in test [18] is “significantly enhanced the level of striatal adenosine”. The “Formation of striatal Htt aggregates” value in test [19] is “markedly reduced the formation of striatal Htt aggregates”.

The record behind these values is publication PMC3119665, “A New Drug Design Targeting the Adenosinergic System for Huntington's Disease” (PLoS ONE, 2011).
